Legend:
[1] = test system: T-Rex 293 cell line SC3 cells having increased expression of androgen receptor protein; test: Cellular growth inhibition, T-Rex 293 SC3 cells with increased androgen receptor expression (doxycycline), CellTiter-Glo; type: cell-based; details: T-Rex 293 SC3 cells with increased androgen receptor expression (exposed to 10 ng/mL doxycycline), 72 hours, CellTiter-Glo; read-out: GI50
Outline: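 SC3, a T-Rex 293 clone with doxycycline-inducible wild-type androgen receptor, was seeded in phenol red-free DMEM with 10% charcoal-dextran FBS, with or without 10 ng/mL doxycycline. Compound added at 24 h (0.5% DMSO) for 72 h at 37° C. CellTiter-Glo 2.0 luminescence; GI50 from four-parameter fit.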

BRD4-BD2 = BRD4-BD2 (Homo sapiens (Human), UniProt O60885); test: bromoKdELECT assay for binding affinity to BRD4-BD2; details: 11-point 3-fold dilution
T47D cells = test: Cellular growth inhibition assay for T47D cells, CellTiter-Glo; type: cell-based, human; details: 72 hours treatment, CellTiter-Glo 2.0
Outline: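 Cells are plated at 3000/well and allowed 24 h before treatment. Test compound in medium containing 0.5% DMSO is then added, with DMSO-only wells as negative control, and plates are incubated 72 h at 37 °C. ATP luminescence (CellTiter-Glo 2.0) is then fitted to four parameters to derive GI50.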

Kd (BRD4-BD2) [nM] | GI50 (T47D cells; Homo sapiens) [nM] | GI50 (T47D cells) [nM] | SMILES | GI50 [1] [nM]
500 to 2500 | < 500 | – | Cn1cc(-c2cc(C(C)(C)O)ccc2Oc2c(F)cc(CCOC3CCN(c4ccc(C(=O)N[C@H]5CC[C@H](Oc6ccc(C#N)c(Cl)c6)CC5)nn4)CC3)cc2F)c2cc[nH]c2c1=O [I-109] | < 500
500 to 2500 | 500 to 1500 | – | Cn1cc(-c2cc(C(C)(C)O)ccc2Oc2ccc(OC3CN(c4ccc(C(=O)N[C@H]5CC[C@H](Oc6ccc(C#N)c(Cl)c6)CC5)nn4)C3)cc2)c2cc[nH]c2c1=O [I-95, N-[4-(3-chloro-4-cyano-phenoxy)cyclohexyl]-6-[3-[4-[4-(1-hydroxy-1-methyl-ethyl)-2-(6-methyl-7-oxo-1H-pyrrolo[2,3-c]pyridin-4-yl)phenoxy]phenoxy]azetidin-1-yl]pyridazine-3-carboxamide] | < 500
500 to 2500 | < 500 | – | CCS(=O)(=O)c1ccc(Oc2cccc(CCCOC3CC4(C3)CN(c3ccc(C(=O)N[C@H]5CC[C@H](Oc6ccc(C#N)c(Cl)c6)CC5)nn3)C4)c2F)c(-c2cn(C)c(=O)c3[nH]ccc23)c1 [I-46] | < 500
50 to 500 | < 500 | – | CCS(=O)(=O)c1ccc(Oc2cccc(CCC3CCN(c4ccc(C(=O)N[C@H]5CC[C@H](Oc6ccc(C#N)c(Cl)c6)CC5)nn4)CC3)c2F)c(-c2cn(C)c(=O)c3[nH]ccc23)c1 [I-51] | < 500
500 to 2500 | – | < 500 | CCS(=O)(=O)c1ccc(Oc2cc(F)c(CCC3CCN(c4ccc(C(=O)N[C@H]5CC[C@H](Oc6ccc(C#N)c(Cl)c6)CC5)nn4)CC3)cc2F)c(-c2cn(C)c(=O)c3[nH]ccc23)c1 [I-59] | < 500
50 to 500 | < 500 | – | Cn1cc(-c2cc(C(C)(C)O)ccc2O[C@H]2C[C@H](N(C)CC3CCN(c4ccc(C(=O)N[C@H]5CC[C@H](Oc6ccc(C#N)c(Cl)c6)CC5)nn4)CC3)C2)c2cc[nH]c2c1=O [I-158, N-((1r,4r)-4-(3-chloro-4-cyanophenoxy)cyclohexyl)-6-(4-((((1r,3r)-3-(4-(2-hydroxypropan-2-yl)-2-(6-methyl-7-oxo-6,7-dihydro-1H-pyrrolo[2,3-c]pyridin-4-yl)phenoxy)cyclobutyl)(methyl)amino)methyl)piperidin-1-yl)pyridazine-3-carboxamide] | < 500
50 to 500 | – | < 500 | CCS(=O)(=O)c1ccc(Oc2cccc(CCCC3CCN(c4ccc(C(=O)N[C@H]5CC[C@H](Oc6ccc(C#N)c(Cl)c6)CC5)nn4)CC3)c2F)c(-c2cn(C)c(=O)c3[nH]ccc23)c1 [I-52] | < 500

SMILES | Kd (BRD4-BD2) [nM] | GI50 (T47D cells; Homo sapiens) [nM] | GI50 (T47D cells) [nM] | GI50 [1] [nM]
CCS(=O)(=O)Nc1ccc(Oc2cccc(OCCOC3CCN(c4ccc(C(=O)N[C@H]5CC[C@H](Oc6ccc(C#N)c(Cl)c6)CC5)nn4)CC3)c2)c(-c2cn(C)c(=O)c3[nH]ccc23)c1 [I-1, N-[4-(3-chloro-4-cyano-phenoxy)cyclohexyl]-6-[4-[2-[3-[4-(ethylsulfonylamino)-2-(6-methyl-7-oxo-1H-pyrrolo[2,3-c]pyridin-4-yl)phenoxy]phenoxy]ethoxy]-1-piperidyl]pyridazine-3-carboxamide] | – | < 500 | – | < 500
Cn1cc(-c2cc(C(C)(C)O)ccc2Oc2ccc(CCC3CCN(c4ccc(C(=O)N[C@H]5CC[C@H](Oc6ccc(C#N)c(Cl)c6)CC5)nn4)CC3)cc2)c2cc[nH]c2c1=O [I-102] | > 2500 | – | – | < 500

Reference: patent US20250388575A1, “HETEROBIFUNCTIONAL COMPOUNDS AND METHODS OF TREATING DISEASE” (Halda Therapeutics OpCo, Inc., priority 2022, published 2025)
